One block for each compound: values may come before it.
Columns and labels:
Caspase 3 = Caspase 3 detection assay in SJSA-1 cells; format: cell-based, human; conditions: SJSA-1 cells, 48 h, Caspase 3 activation over DMSO-treated cells
Protocol: One the day of the assay, the media was replaced with fresh RPMI-11% FBS assay media. […] Control wells contained no cells, and received 200 μL of the assay media.
The solutions were serially diluted 33.3 times using sterile water to provide a range of 10× working stock solutions. […] 20 μL of the 10× working stock solutions were added to the appropriate wells. Row H of the plates had control wells. Wells H1-H3 received 20 μL of the assay media. […] Wells H10-H12 received media and had no cells. […] Nutlin-3a was diluted using the same dilution scheme as the peptides.
10 μL of the 10× stock solutions were added to the appropriate wells to achieve the final concentrations in a total volume of 100 μL. […] 48 h after incubation, 80 μL of the media was aspirated from each well. 100 μL of Caspase 3/7Glo assay reagent was added to each well. […] Data were analyzed as Caspase 3 activation over DMSO-treated cells.

SJSA-1 cells = assay: Cell lysis by peptidomimetic macrocycles (LDH release); format: cell-based, human
Protocol: SJSA-1 cells were plated out one day in advance in clear, flat-bottom plates at a density of 7500 cells/well with 100 μL/well of growth media. Row H columns 10-12 were left empty to be treated with media alone. On the day of the assay, the media was exchanged with RPMI 1% FBS media to result in 90 μL of media per well. 10 mM stock solutions of the peptidomimetic macrocycles were prepared in 100% DMSO. The peptidomimetic macrocycles were diluted serially in 100% DMSO, and further diluted 20-fold in sterile water to prepare working stock solutions in 5% DMSO/water. The concentrations of the peptidomimetic macrocycles ranged from 500 μM to 62.5 μM.
10 μL of each compound solution was added to the 90 μL of SJSA-1 cells to yield final concentration of 50 μM to 6.25 μM in 0.5% DMSO-containing media. The negative control (non-lytic sample) was 0.5% of DMSO alone. The positive control (lytic) samples included 10 μM of Melittin and 1% Triton X-100. The cell plates were incubated for 1 h at 37° C. After incubation for 1 h, the morphology of the cells was examined by microscope. The plates were then centrifuged at 1200 rpm for 5 min at room temperature. 40 μL of the supernatant for each peptidomimetic macrocycle and control sample was transferred to clear assay plates. LDH release was measured using an LDH cytotoxicity assay kit.

MCF7 cells = format: cell-based, human; conditions: Homo sapiens
[1] = system: SJSA1 osteosarcoma cancer cells; assay: cells; conditions: Homo sapiens, SJSA-1, 120 h, read-out: IC50, cellular proliferation
[2] = Pharmacokinetics of AP1 and palbociclib in non-tumor-bearing nu/nu mice; conditions: nu/nu, mouse, plasma, po, 75 mg/kg, nu/nu mice; for AUC(0-t): AUClast
[3] = Alone, AP1 20 mg/kg or palbociclib 75 mg/kg alone
[4] = Co-administered, AP1 20 mg/kg with palbociclib 75 mg/kg

SMILES: CSCC[C@H](NC(=O)[C@H](C)NC(=O)[C@H](C)NC(=O)[C@]1(C)CCCC=CCCCCCC[C@@](C)(NC(=O)[C@H](Cc2ccccc2)NC(=O)[C@@H](NC(=O)[C@H](CC(C)C)NC(C)=O)[C@@H](C)O)C(=O)N[C@@H](C)C(=O)N[C@@H](Cc2ccc(O)cc2)C(=O)N[C@@H](Cc2c[nH]c3ccccc23)C(=O)N[C@@H](C)C(=O)N[C@@H](C)C(=O)N[C@@H](CC(C)C)C(=O)N1)C(=O)N[C@H](C)C(N)=O (single isomer, unassigned) [compound 72]
caspase 0.3 μM (Caspase 3; 0.3 μM): 1
caspase 3 μM (Caspase 3; 3 μM): 1
caspase 10 μM (Caspase 3; 10 μM): 4
caspase 30 μM (Caspase 3; 30 μM): 10
6.25 μM % Lysed cells (1 h LDH) (SJSA-1 cells; 6.25 μM): 2%
25 μM % Lysed cells (1 h LDH) (SJSA-1 cells; 25 μM): 0%
50 μM % Lysed cells (1 h LDH) (SJSA-1 cells; 50 μM): 3%

IC50 [1]: 60 nM
AUC(0-t) [2, 3]: 37000 ng·h/mL
AUC(0-t) [2, 4]: 29000 ng·h/mL
Cmax [2, 3]: 2900 ng/mL
Cmax [2, 4]: 2600 ng/mL
SMILES: CC(=O)c1c(C)c2cnc(Nc3ccc(N4CCNCC4)cn3)nc2n(C2CCCC2)c1=O [palbociclib]
inhibition at 0.0003 µM (MCF7 cells): -10%
inhibition at 0.001 µM (MCF7 cells): -19%
inhibition at 0.003 µM (MCF7 cells): -9.7%
inhibition at 0.01 µM (MCF7 cells): 6.6%
inhibition at 0.03 µM (MCF7 cells): 21.1%
inhibition at 0.1 µM (MCF7 cells): 40.9%
inhibition at 0.3 µM (MCF7 cells): 62.9%
inhibition at 1 µM (MCF7 cells): 78.9%
inhibition at 3 µM (MCF7 cells): 84%
inhibition at 10 µM (MCF7 cells): 84.3%
inhibition at 30 µM (MCF7 cells): 100%
